“Also recorded” adds a separate entry of the source. Residues, ends and D or L forms follow the SMILES beside them. *: point of attachment. Myristoyl = CCCCCCCCCCCCCC(=O)*
What was measured:
S. aureus ATCC 25923 [1] = assay type: cell-based, Staphylococcus aureus
Protocol: The MICs of Myr-36PW in vitro were measured through microdilution in accordance with the Clinical and Laboratory Standards Institute (CLSI, [2020]). The bacterial cells were cultured for 12 h at 37°C in the appropriate medium and then diluted to 1 × 10^6 CFU/mL. Equal volumes (100 μL) of bacterial cell suspension and two-fold serially diluted different concentrations peptides (0.0039–256 μg/mL) were added to each well of the sterile 96-well plate. The samples were incubated for 18 h at 37°C. After incubation, the MICs of the peptides were determined by evaluating the growth based on the OD600 of the cultures.

S. aureus ATCC 25923 [2] = assay: Peritonitis model; assay type: in vivo, BALB/c mice; conditions: intraperitoneal 60 μL, 1 μg/μL, once a day for 3 days; for Liver pathogenic scores: compared with PBS group; for Liver pathogenic scores / Bacterial CFU in liver and spleen homogenate / Spleen pathogenic scores: n = 5
Protocol: The peritonitis model in vivo was generated by intraperitoneally injecting S. aureus ATCC 25923 (2.5 × 10^9 CFU/mL, 140 μL). Sixty mice were randomly divided into six groups of 10 members: those who received no infection and treatment was used as a blank control, those with […] administration of PBS (60 μL) as the negative control group, those administered with benzylpenicillin potassium (60 μL, 1 μg/μL) as the positive control group, and the remaining three groups corresponded to three antimicrobial peptide groups of Myr-36PW (60 μL, 1 μg/μL), PMAP-36PW (60 μL, 1 μg/μL), and PMAP-36 (60 μL, 1 μg/μL). After 4 h post-inoculation, treatment was initiated by intraperitoneal injection once a day for 3 days. The mice were sacrificed 24 h the treatment. Changes in the appearance of anatomical tissues were observed. The liver and spleen tissues were removed aseptically from the mice, and half of these samples were gently fixed in buffered formaldehyde solution for histopathological assessment by hematoxylin and eosin (H&E) staining. Pathological changes were scored to assess individual therapeutic status as described previously (Song et al., [2015]; Lei et al., [2018]). The remaining half of livers and spleens were added with 1 mL of PBS, homogenized, and serially diluted. Bacterial CFU counts were measured.
Figure 9 Therapeutic potency of peritonitis by Myr-36PW in vivo. The livers and spleens (n = 5) in each group were collected on day 4 after the intraperitoneal injection of S. aureus ATCC 25923. (A) Morphological changes in liver and spleen tissues. (B) Representative histopathological images of processed liver and spleen sections with hematoxylin and eosin (H&E) staining. Images are presented at a magnification of 40×. a: central venous hemorrhage. b: the cells fuse into pieces, and the nucleus dissolves and disappears. c: cytoplasmic cavitation. (C,D) Pathological scores of the liver and spleen sections. Scoring standard: 1 indicated no pathology, 2 indicated perivascular infiltrates, 3 indicated perivascular or interstitial infiltrates affecting <20% of the section, 4 indicated perivascular or interstitial infiltrates affecting 20–50% of the section, and 5 indicated perivascular or interstitial infiltrates affecting >50% of the section. (E,F) Bacterial CFU in liver and spleen homogenate. BP is benzylpenicillin potassium. Data represent the mean ± SD of five individual experiments.

[3] = system: S. aureus ATCC 25923 and P. aeruginosa GIM 1.551; assay: pH stability testing (pH 2-13, then inhibition zone assay); assay type: cell-based, Staphylococcus aureus; Pseudomonas aeruginosa; conditions: for pH range of stable antimicrobial activity: peptides treated at pH 2–13, inhibition zone, 10 μg, n = 5
Protocol: For stability test, the Myr-36PW and peptides were treated with pH 2–13, and PBS buffer with different pH values was used as a control (Wang et al., [2019]). Inhibition zone assay was performed against S. aureus ATCC 25923 and P. aeruginosa GIM 1.551. The inhibition zone diameters of peptides (10 μg, 1 μg/μL) were measured after incubation for 18 h at 37°C, and the inhibition curve was drawn.
Figure 4 PH stability determination of Myr-36PW. PH stability test was performed using Myr-36PW and its analogs treated with different pH levels (2–13) through disk diffusion method. (A) (S. aureus ATCC 25923) and (B) (P. aeruginosa GIM 1.551) show the pH stability curve of PMAP-36, PMAP-36PW, and Myr-36PW. The diameter of the standard disk is 6 mm. Data represent the mean ± SD (n = 5).

P. aeruginosa GIM 1.551 = assay: Wound infection model; assay type: in vivo, BALB/c mice; conditions: 20 μL, 1 μg/μL, once a day for 7 days
Protocol: Sixty mice with ten mice in each group were used in the experiment. Infection and treatment were performed as previously described (Hong et al., [2017]). The mouse dorsal region with a diameter of 3.0 cm was treated with hair pusher, and a full-thickness 2.0 cm diameter wound was created by excising the skin and infected by direct seeding with P. aeruginosa GIM 1.551 (1 × 10^8 CFU/mL, 50 μL). The wound was then covered with sterile gauze to prevent cross contamination. Treatment was initiated at 24 h after bacterial inoculation. The mice with no infection and treatment was used as a blank control, those provided with PBS (20 μL) as the negative control group, those administered with ampicillin sodium (20 μL, 1 μg/μL) as the positive control group, and the remaining were those treated with the three peptides (20 μL, 1 μg/μL) once a day for 7 days as the treatment groups. The mice were sacrificed after the 7 day treatment. Changes in the wound were observed, and the infected sections of skin were aseptically contained, homogenized, and serially diluted. Bacterial CFU counts were obtained.
Figure 11 Treatment value of wound by Myr-36PW in vivo. A 2 cm wound was cut with a knife and directly injected with P. aeruginosa GIM 1.551. (A) Wound changes of mice after 7 days treatment. (B) Bacterial CFU in the wound area treated for 7 days under different experimental conditions. AS is ampicillin sodium. Data represent the mean Log (CFU) ± SD of five individual experiments. *P < 0.05 and **P < 0.01, compared with PBS. ^#P < 0.05, compared with PMAP-36PW.

Row | SMILES | MICs of different classes of antibiotics (S. aureus ATCC 25923 [1]; S. aureus ATCC 25923, * indicates resistant (CLSI, 2020)) | Liver and spleen histopathology (H&E) (S. aureus ATCC 25923 [2]) | Liver pathogenic scores (S. aureus ATCC 25923 [2]) | Bacterial CFU in liver and spleen homogenate (S. aureus ATCC 25923 [2]) | Spleen pathogenic scores (S. aureus ATCC 25923 [2]) | MICs (S. aureus ATCC 25923 [1]; ATCC 25923, 18 h) | pH range of stable antimicrobial activity ([3]; against P. aeruginosa GIM 1.551) | pH range of stable antimicrobial activity ([3]; against S. aureus ATCC 25923) | Antimicrobial activity at pH 2 ([3]; inhibition zone, 10 μg peptide) | Antimicrobial activity at pH 13 ([3]; inhibition zone, 10 μg peptide) | Wound size (P. aeruginosa GIM 1.551) | Bacterial CFU in the wound area (P. aeruginosa GIM 1.551; vs PBS group: PMAP-36PW P < 0.05, Myr-36PW and ampicillin sodium P < 0.01, n = 5)
1 | CC1(C)S[C@@H]2[C@H](NC(=O)Cc3ccccc3)C(=O)N2[C@H]1C(=O)O [Benzylpenicillin potassium] | <0.25 µg/mL | the liver cells of mice were neatly arranged with clear cell boundaries and no pathological changes in spleen tissues | significantly lower than PBS group (P < 0.01) | significantly decreased compared with that of PMAP-36PW group (P < 0.05) | displayed significant difference (P < 0.01); also recorded: lower than those for PMAP-36PW group (P < 0.05) |  |  |  |  |  |  | 
2 | CCCCCCCCCCCCCC(=O)NCC(=O)NCC(=O)N[C@@H](CCCNC(=N)N)C(=O)N[C@@H](Cc1ccccc1)C(=O)N[C@@H](CCCNC(=N)N)C(=O)N[C@@H](CCCNC(=N)N)C(=O)N[C@@H](CC(C)C)C(=O)N[C@@H](CCCNC(=N)N)C(=O)N[C@@H](CCCCN)C(=O)N[C@@H](CCCCN)C(=O)N[C@H](C(=O)N[C@@H](CCCNC(=N)N)C(=O)N[C@@H](CCCCN)C(=O)N[C@@H](CCCNC(=N)N)C(=O)N[C@@H](CC(C)C)C(=O)N[C@@H](CCCCN)C(=O)N[C@@H](CCCCN)C(=O)N[C@H](C(=O)NCC(=O)N[C@@H](CCCCN)C(=O)N[C@H](C(=O)N[C@@H](CC(C)C)C(=O)N[C@@H](CCCCN)C(=O)N[C@@H](Cc1c[nH]c2ccccc12)C(=O)N[C@H](C(=O)N[C@@H](Cc1c[nH]c2ccccc12)C(=O)N[C@@H](Cc1c[nH]c2ccccc12)C(=O)N[C@H](C(=O)N[C@H](C(=O)NCC(=O)N[C@@H](CO)C(=O)N[C@H](C(=O)N1CCC[C@H]1C(=O)N[C@@H](CC(C)C)C(=O)NCC(=O)N[C@@H](CS)C(=O)NCC(=O)O)[C@@H](C)CC)C(C)C)[C@@H](C)CC)[C@@H](C)CC)C(C)C)[C@@H](C)CC)[C@@H](C)O [Myr-36PW] (Myristoyl-GGRFRRLRKKTRKRLKKIGKVLKWIWWIVGSIPLGCG-OH; C-terminus assumed) |  | the liver cells of mice were neatly arranged with clear cell boundaries and no pathological changes in spleen tissues | significantly lower than PBS group (P < 0.01) | significantly decreased compared with that of PMAP-36PW group (P < 0.05) | displayed significant difference (P < 0.01); also recorded: lower than those for PMAP-36PW group (P < 0.05) | 0.0020 µg/mL | 5–11 pH | 5–9 pH | higher than that of PMAP-36PW | disappeared | significantly reduced | significantly reduced
